Data reported in paper PMC4331650 (Biochimica et Biophysica Acta, 2014).
Positions count from the first letter of the chain named.

How the values were obtained:
[1] = tested on: rat CLC-K1; conditions: all concentrations tested; cited from earlier work
[2] = target: T1, F256A CLC-Ka (Homo sapiens, UniProt P51800, F256A); type: cell-based; conditions: 200 μM NFA
T1 sequence (P51800 1-687 F256A): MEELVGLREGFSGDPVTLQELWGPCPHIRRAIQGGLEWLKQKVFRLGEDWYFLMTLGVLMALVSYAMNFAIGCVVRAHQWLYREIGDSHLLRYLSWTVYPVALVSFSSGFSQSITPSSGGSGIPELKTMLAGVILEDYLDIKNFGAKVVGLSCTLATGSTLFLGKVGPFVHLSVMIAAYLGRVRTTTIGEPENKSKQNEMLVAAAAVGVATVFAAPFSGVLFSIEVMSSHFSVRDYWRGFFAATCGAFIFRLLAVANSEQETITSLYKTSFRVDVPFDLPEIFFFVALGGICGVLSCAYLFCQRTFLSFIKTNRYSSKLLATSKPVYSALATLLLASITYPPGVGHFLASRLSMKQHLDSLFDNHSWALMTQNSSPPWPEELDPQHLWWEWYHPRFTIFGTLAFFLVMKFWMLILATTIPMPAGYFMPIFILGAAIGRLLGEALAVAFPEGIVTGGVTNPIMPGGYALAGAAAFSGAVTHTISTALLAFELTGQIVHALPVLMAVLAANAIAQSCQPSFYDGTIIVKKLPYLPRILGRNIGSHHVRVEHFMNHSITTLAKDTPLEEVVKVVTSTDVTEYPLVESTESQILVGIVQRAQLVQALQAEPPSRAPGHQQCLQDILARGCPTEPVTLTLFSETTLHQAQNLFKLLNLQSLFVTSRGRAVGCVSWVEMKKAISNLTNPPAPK
T1 sequence (Q8WZ55 1-320 Y98A partner): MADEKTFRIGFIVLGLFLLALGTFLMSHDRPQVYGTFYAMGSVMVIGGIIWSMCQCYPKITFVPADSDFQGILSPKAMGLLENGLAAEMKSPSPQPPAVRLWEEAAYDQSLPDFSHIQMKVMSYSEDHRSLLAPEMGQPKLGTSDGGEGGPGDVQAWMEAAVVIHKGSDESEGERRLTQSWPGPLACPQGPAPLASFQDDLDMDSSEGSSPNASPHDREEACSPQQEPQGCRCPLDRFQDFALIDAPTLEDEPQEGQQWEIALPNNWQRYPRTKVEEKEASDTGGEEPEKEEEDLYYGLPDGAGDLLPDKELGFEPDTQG

[3] = target: T2, WT CLC-Ka (Homo sapiens, UniProt P51800); test: NFA modulation of WT CLC-Ka currents, voltage clamp in Xenopus oocytes; type: cell-based
T2 sequence (P51800 1-687): T1 sequence (P51800 1-687 F256A) with A256F
T2 sequence (Q8WZ55 1-320 Y98A partner): T1 sequence (Q8WZ55 1-320 Y98A partner)

[4] = target: T1, F256A CLC-Ka; test: NFA modulation of F256A CLC-Ka currents, voltage clamp in Xenopus oocytes; type: cell-based
[5] = target: T1, F256A CLC-Ka; type: cell-based; conditions: 200 μM NFA, 60 mV
[6] = target: T3, F256A CLC-K1/barttin (Rattus norvegicus, UniProt Q06393, F256A); test: NFA effect on F256A CLC-K1/barttin, voltage clamp in Xenopus oocytes; type: cell-based
T3 sequence (Q06393 1-687 F256A): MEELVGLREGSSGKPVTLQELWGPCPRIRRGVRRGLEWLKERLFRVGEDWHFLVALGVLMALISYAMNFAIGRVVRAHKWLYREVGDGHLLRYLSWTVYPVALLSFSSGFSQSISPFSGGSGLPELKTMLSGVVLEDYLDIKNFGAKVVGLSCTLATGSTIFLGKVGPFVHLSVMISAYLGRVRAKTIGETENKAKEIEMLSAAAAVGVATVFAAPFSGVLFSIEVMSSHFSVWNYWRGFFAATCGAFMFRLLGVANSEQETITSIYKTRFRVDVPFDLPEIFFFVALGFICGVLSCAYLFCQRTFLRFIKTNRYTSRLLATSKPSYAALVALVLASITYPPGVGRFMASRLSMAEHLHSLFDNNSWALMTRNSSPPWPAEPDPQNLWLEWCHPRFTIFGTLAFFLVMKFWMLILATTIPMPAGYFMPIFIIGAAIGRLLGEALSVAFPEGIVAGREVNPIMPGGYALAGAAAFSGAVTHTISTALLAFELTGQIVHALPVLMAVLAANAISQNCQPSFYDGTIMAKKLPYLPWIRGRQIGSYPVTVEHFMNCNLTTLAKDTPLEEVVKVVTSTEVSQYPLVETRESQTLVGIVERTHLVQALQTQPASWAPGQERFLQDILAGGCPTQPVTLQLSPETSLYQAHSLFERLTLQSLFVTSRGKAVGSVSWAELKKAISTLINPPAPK
T3 sequence (Q8WZ55 1-320 Y98A partner): T1 sequence (Q8WZ55 1-320 Y98A partner)

[7] = tested on: hCLC-Kb; conditions: [NFA]ext up to 2 mM; cited from earlier work
[8] = at 500 μM NFA, currents at 60 mV normalized to 0 NFA

open probability after potentiation by NFA ([2]; judged from variance–mean plots without curvature): below 0.5
effect on single channel conductance ([2]; −100 mV and 60 mV, noise analysis): does not change significantly
current increase ([3]; 200 μM NFA, WT CLC-Ka in Xenopus oocytes): 3 fold
effect of NFA on currents ([3]; [NFA]ext > 500 μM): inhibited
maximal stimulation of currents [3, 8]: 4 fold
effect of NFA on currents ([3]; very low [NFA]ext): not changed
potentiation of currents ([4]; 2 μM NFA): two-fold
current increase ([4]; 200 μM NFA, F256A CLC-Ka in Xenopus oocytes): ~ 25 fold
effect of NFA on currents ([4]; all concentrations tested, from 1 to 2000 μM): potentiated
maximal stimulation (potentiation) of currents [4, 8]: 37 fold
average current increase ([5]; SD, n = 5 patches): 39 +/− 13
single channel current in NFA (average) ([5]; n = 3): 1.75 ± 0.10 pA
distance of Gaussian components of the amplitude histogram in NFA ([5]; patch of Fig. 4): 1.8 pA
increase of mean current in the patch ([5]; the single patch shown in Fig. 4): about 53 fold
effect of NFA on currents ([6]; 10 μM NFA, steady state currents not increased): transient potentiation
maximal potentiation (I1/I0) ([6]; transient potentiation extrapolated by single-exponential function): around 1.9 fold
SMILES: O=C(O)c1cccnc1Nc1cccc(C(F)(F)F)c1 [NFA, niflumic acid]
effect on rat CLC-K1 [1]: blocked
effect on hCLC-Kb [7]: potentiated
